Where two headings read alike, the source gives them in different places.
Legend:
human apelin receptor = molecular target: T1, human apelin receptor (Homo sapiens, UniProt P35414); details: Smith, 2019; cited from earlier work
T1 sequence (P35414 1-380): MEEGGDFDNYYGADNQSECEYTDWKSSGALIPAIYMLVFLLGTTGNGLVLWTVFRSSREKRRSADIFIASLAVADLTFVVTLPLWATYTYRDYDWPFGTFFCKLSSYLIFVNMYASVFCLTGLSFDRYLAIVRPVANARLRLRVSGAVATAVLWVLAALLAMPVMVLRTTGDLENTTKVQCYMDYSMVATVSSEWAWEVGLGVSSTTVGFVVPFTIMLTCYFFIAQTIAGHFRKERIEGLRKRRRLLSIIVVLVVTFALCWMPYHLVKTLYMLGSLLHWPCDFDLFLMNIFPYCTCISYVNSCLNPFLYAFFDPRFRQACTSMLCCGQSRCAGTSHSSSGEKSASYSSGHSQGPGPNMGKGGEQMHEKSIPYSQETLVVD

[1] = Solubility in DMSO and aqueous solutions
S. aureus = S. aureus growth (OD600); type: cell-based; details: S. aureus, HTS hits
Procedure: (§1) Microtiter plate vesicle lysis assays. Portions of media (2 or 10 mL) were inoculated with individual bacterial colonies and allowed to shake overnight. From these overnight cultures, subcultures were prepared by diluting the cultures 1:50 (v/v) in fresh BHI for S. aureus or 1:100 (v/v) in fresh LB for P. aeruginosa. An aliquot of each subculture (178 μL) was added to 20 μL of vesicle suspension and 2 μL of compound solution (dissolved in DMSO at 100× working concentration) in a clear-bottomed, black 96-well microtiter plate (Corning 3904). For controls, DMSO (vehicle) or Triton X-100 (1% final concentration) was substituted for compound. Plate covers were coated with an aqueous solution of 0.05% Triton X-100 and 20% ethanol (Brewster, 2003) to prevent the accumulation of condensation. Plates were incubated in a Biotek Synergy 2 microplate reader running Gen5 1.05 software at 37° C. with shaking at the high-speed setting. Fluorescence (excitation 500 nm, emission 540 nm) and OD600 (absorbance at 600 nm) measurements were recorded every 15 minutes for 12 hours. All experiments were performed in technical triplicate in a single microtiter plate. Biological triplicates were then obtained over three days. GraphPad Prism software (v. 9) was used to generate curves and calculate standard error.
High-throughput screening and follow-up analysis protocols. Test compounds and positive control 1 were delivered in 2.5 nL aliquots of DMSO with an Echo 550 liquid handler (LabCyte Inc.) into black 384-well microtiter plates (Corning). All test compounds were tested at 10 μM; positive control 1 was tested at 250 nM. DMSO was used as a negative control. Overnight cultures (2 mL) of WT S. aureus (RN6390b) were grown at 37° C. with shaking at 200 rpm. These cultures were diluted 1:500 (v/v) in fresh BHI medium, at which point vesicle solutions were added to a final concentration of 1 mM phospholipid (as determined by ^31P NMR analyses). This vesicle-cell mixture was then added to the 384-well microtiter plates with a Multidrop 384 liquid-dispensing robot (Thermo Scientific) for a total volume of 50 μL per well. Plates were incubated statically for ˜24 hr at 37° C., at which point fluorescence (excitation 483, emission 530) and OD600 (absorbance at 600 nm) measurements were made using a CLARIOstarR Plus microtiter plate reader (BMG Labtech) running MARS data analysis software. Scatter plots were generated using the Collaborative Drug Discovery Vault informatics platform. […] Fluorescence (excitation 510, emission 544) and OD600 measurements were acquired with a PerkinElmer EnVision microtiter plate reader running Envision Manager software. […]

agr = agr YFP transcriptional reporter assay (S. aureus AH1677 with pDB59); type: cell-based; details: for agr inhibition in agr transcriptional reporter assay: S. aureus agr YFP reporter; for IC50: Staphylococcus aureus
Procedure: Bacterial strains and culture. All bacteria were grown at 37° C. with 200 rpm shaking unless otherwise specified. S. aureus and P. aeruginosa were grown in BHI medium and LB medium, respectively. S. aureus AH1677 (with an agr-YFP reporter plasmid) and P. aeruginosa PAO1-PGSC (with a plasI-LVAgfp reporter plasmid) were used as QS transcriptional reporters and grown with 10 μg/mL chloramphenicol and 300 μg/mL carbenicillin, respectively. All other strains were grown without supplemental antibiotic. S. aureus RN6390b and P. aeruginosa PAO1-PGSC were used as WT strains in vesicle lysis experiments, while S. aureus RN9222 and P. aeruginosa PAO-JG35 were used as QS mutants. RN9222 was grown without antibiotic as it was not used as a reporter strain (i.e., it served only as QS mutant).
High-throughput screening and follow-up analysis protocols. Test compounds and positive control 1 were delivered in 2.5 nL aliquots of DMSO with an Echo 550 liquid handler (LabCyte Inc.) into black 384-well microtiter plates (Corning). All test compounds were tested at 10 μM; positive control 1 was tested at 250 nM. DMSO was used as a negative control. Overnight cultures (2 mL) of WT S. aureus (RN6390b) were grown at 37° C. with shaking at 200 rpm. These cultures were diluted 1:500 (v/v) in fresh BHI medium, at which point vesicle solutions were added to a final concentration of 1 mM phospholipid (as determined by ^31P NMR analyses). This vesicle-cell mixture was then added to the 384-well microtiter plates with a Multidrop 384 liquid-dispensing robot (Thermo Scientific) for a total volume of 50 μL per well. Plates were incubated statically for ˜24 hr at 37° C., at which point fluorescence (excitation 483, emission 530) and OD600 (absorbance at 600 nm) measurements were made using a CLARIOstarR Plus microtiter plate reader (BMG Labtech) running MARS data analysis software. Scatter plots were generated using the Collaborative Drug Discovery Vault informatics platform. The dose-response experiment using the vesicle lysis assay was performed in a 384-well plate in technical duplicate with compound concentrations of 0.1, 0.25, 0.5, 1, 2.5, 5, 10, and 20 μM. Dose-response curves were generated using variable slope (4 parameter) non-linear regression analysis for compound inhibition using GraphPad Prism software (v. 9). Analysis of the QS modulatory activity of the HTS hits and 6 (savirin) was performed using the S. aureus YFP transcriptional reporter strain. HTS hits were purchased directly from Life Chemicals, Inc. DMSO stock solutions (10 mM) of each compound were prepared and stored at −20° C. Serial dilutions (1:3) were prepared from the stock solutions in DMSO, and 2 μL aliquots of the resulting dilutions were added to the wells of black 96-well microtiter plates (Corning). Overnight cultures of the S. aureus reporter strain (2 mL) were grown at 37° C. with shaking at 200 rpm. Cultures were diluted 1:50 (v/v) into fresh BHI medium, and 198 μL of this diluted culture were added to each well containing compound, for a total volume of 200 μL per well. All plates contained a vehicle control consisting of 2 μL of DMSO and 198 μL of culture and a media control consisting of 200 μL BHI. Plates were incubated for ˜24 hours at 37° C. with shaking at 200 rpm. Fluorescence (excitation 510, emission 544) and OD600 measurements were acquired with a PerkinElmer EnVision microtiter plate reader running Envision Manager software. Background fluorescence from BHI control was subtracted from raw fluorescence reads, OD600 corrected, and finally normalized to vehicle control. Dose-response curves and IC50 values were generated using 3-parameter non-linear regression analysis for compound inhibition using GraphPad Prism software (v. 9). All compounds were tested in technical triplicate with at least 3 biological replicates.

P. aeruginosa = P. aeruginosa growth (OD600); type: cell-based; details: P. aeruginosa WT and QS mutant with vesicles, 12 hr
Procedure: as §1

[2] = system: WT P. aeruginosa (PAO1-PGSC); experiment: Microtiter plate (96-well) vesicle lysis assay with WT P. aeruginosa; type: cell-based
Procedure: Compound handling and preparation. OdDHL and BHL (Hodgkinson et al., 2011), S. aureus AIP and peptide derivatives 1-5 (Tal-Gan et al., 2013, Tal-Gan et al., 2016, Vasquez and Blackwell, 2019), and compounds 7-9 (Welsh and Blackwell, 2016a, Boursier et al., 2018, Manson et al., 2020) were synthesized using previously described methods. PQS and compound 6 were purchased from Millipore Sigma and AK Scientific respectively. Compounds were stored dry at −20° C. until needed and then dissolved in DMSO. DMSO stock solutions were prepared at concentrations that varied with compound potency and apparent solubility. Final in-well compound concentrations for 96-well vesicle lysis assays, unless noted otherwise, were: 10 μM for AIP, OdDHL, and PQS; 1 mM for BHL; 100 nM for 1-4; 10 μM for 5; 20 μM for 6; 100 μM for 7 and 8; and 200 μM for 9.
Production of phospholipid vesicles with encapsulated calcein. Large unilamellar vesicles (LUVs) were produced by adapting a freeze-thaw and vesicle extrusion procedure (Mayer et al., 1986). Briefly, stock solutions of phospholipids (DOPC, DPPC, DPPE, or cholesterol) in chloroform were mixed to the desired lipid compositions (70 mol % DOPC/30 mol % cholesterol for S. aureus vesicles or 68 mol % DPPC, 30 mol % cholesterol, 2 mol % DPPE for P. aeruginosa vesicles), and the chloroform was removed using an N2 stream or rotary evaporation followed by drying for at least one hour under vacuum. Self-quenching solutions of calcein were prepared by combining calcein and PBS or a specially prepared calcein buffer (1 mM EDTA, 10 mM Trisbase, and 100 mM NaCl; pH 8) to a calcein concentration of […]. The resulting solutions were titrated with 10 M aqueous NaOH until all calcein was dissolved and the solution reached pH 7.4 or pH 8 for PBS and the calcein buffer, respectively. The resulting calcein solutions were added to the dried phospholipid films (PBS for S. aureus formulations and the calcein buffer for the P. aeruginosa formulations) for a final lipid concentration of 5 mg/mL. The resulting lipid solutions were vortexed vigorously and briefly sonicated in a bath sonicator to form a turbid vesicle suspension. The vesicle suspensions were then freeze-thawed five times by alternately immersing them into an iPrOH/dry ice bath and a warm water bath (˜60° C.). Vesicles prepared for continuous time-course experiments were passed at least 5 times through a 100 nm polycarbonate filter using a Mini-prep extruder. Vesicles prepared for the high-throughput screen were passed through the filter 3 times. The resulting vesicles were then separated from external, unloaded calcein using a hand-packed Sephadex-G50 size exclusion chromatography column. The concentration of phospholipid in the solution was quantified using ^31P NMR (per the above protocol), and the phospholipid concentration was adjusted to 2 mM for unsaturated lipid solutions and 1 mM for saturated lipid solutions in their respective buffers. The resulting vesicles were characterized by dynamic light scattering and found to have a hydrodynamic diameter of ˜150 nm (FIGS. 3A-3C), which agrees with previous reports describing vesicle production using a similar method (Lapinski et al., 2007).
Microtiter plate vesicle lysis assays. Portions of media (2 or 10 mL) were inoculated with individual bacterial colonies and allowed to shake overnight. […]

[3] = 24 h, read-out: IC50 in the agr reporter assay

**Q.** Which results are given for `Cc1nn2c(C(C)C)cc(C(=O)O)nc2c1-c1ccccc1` [Compound 10, 7-isopropyl-2-methyl-3-phenylpyrazolo[1,5-a]pyrimidine-5-carboxylic acid]?
**A.** reported activity at human apelin receptor (human apelin receptor): agonists; solubility in DMSO and aqueous solutions [1]: readily soluble; inhibition of cellular growth (S. aureus): do not inhibit cellular growth; agr inhibition in agr transcriptional reporter assay (agr): near maximal agr inhibitors; IC50 (agr): 1220 nM; IC50 (agr; [3]): 500 nM

**Q.** For `O=C(Nc1nc2c(s1)CN(C(=O)Nc1cccc(Cl)c1)CC2)c1ccsc1` [Compound 11, N-(3-chlorophenyl)-2-(thiophene-3-carboxamido)-6,7-dihydrothiazolo[5,4-c]pyridine-5(4H)-carboxamide], which “solubility in DMSO and aqueous solutions” value [1] is on record?
**A.** readily soluble

**Q.** And the “inhibition of cellular growth” value (S. aureus)?
**A.** do not inhibit cellular growth

**Q.** What about the “agr inhibition in agr transcriptional reporter assay” value (agr) of the same compound?
**A.** near maximal agr inhibitors

**Q.** What about the IC50 (agr; [3]) of the same compound?
**A.** 700 nM

**Q.** Which “effect on bacterial growth” value (P. aeruginosa) does the source give for `CCCCCCCCCC(=O)CC(=O)Nc1ccccc1` [Compound 7, V-06-018] here?
**A.** inhibit growth mildly at later time points

**Q.** And the “delay of vesicle lysis relative to vehicle controls” value ([2]; 100 μM 7 and 8)?
**A.** approximately two

**Q.** What about the “delay of the onset of vesicle lysis” value ([2]; 100 μM 7 and 8, FIG. 7C) of the same compound?
**A.** approximately 2 hr
